Reference: ChEMBL document CHEMBL1201862, “PubChem BioAssay data set” (2004)
Calls of active or inactive are those of the source.

Tests used:
[1] = biological target: T1, Corticotropin-releasing factor receptor 2/Corticotropin-releasing factor-binding protein (Homo sapiens, UniProt P24387+Q13324); test: activators of CRF receptor 2 with binding protein – uHTS hits, confirmation (AID 602473); format: functional; conditions: read-out: EC50_Mean
T1 sequence (Q13324 whole entry): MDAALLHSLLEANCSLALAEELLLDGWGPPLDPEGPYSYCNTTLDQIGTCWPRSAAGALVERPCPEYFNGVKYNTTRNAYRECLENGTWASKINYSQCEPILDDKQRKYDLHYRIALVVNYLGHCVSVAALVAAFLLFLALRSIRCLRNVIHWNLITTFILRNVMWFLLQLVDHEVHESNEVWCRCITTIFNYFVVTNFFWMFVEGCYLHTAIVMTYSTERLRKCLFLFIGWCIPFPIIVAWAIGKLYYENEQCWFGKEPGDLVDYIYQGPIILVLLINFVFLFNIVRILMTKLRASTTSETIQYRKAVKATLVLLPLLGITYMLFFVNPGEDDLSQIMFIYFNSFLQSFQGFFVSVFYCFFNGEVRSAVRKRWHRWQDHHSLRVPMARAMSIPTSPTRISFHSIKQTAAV
T1 sequence (P24387 whole entry): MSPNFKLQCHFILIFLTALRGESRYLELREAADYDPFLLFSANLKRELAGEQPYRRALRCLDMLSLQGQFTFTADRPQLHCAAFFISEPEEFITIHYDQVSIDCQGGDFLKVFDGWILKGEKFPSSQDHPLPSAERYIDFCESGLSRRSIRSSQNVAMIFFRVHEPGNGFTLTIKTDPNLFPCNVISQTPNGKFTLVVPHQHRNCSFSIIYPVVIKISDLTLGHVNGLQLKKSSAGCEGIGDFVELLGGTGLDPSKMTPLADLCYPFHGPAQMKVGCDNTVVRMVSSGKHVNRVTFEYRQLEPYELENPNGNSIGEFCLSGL

[2] = biological target: T1, Corticotropin-releasing factor receptor 2/Corticotropin-releasing factor-binding protein; test: Dose Response confirmation of uHTS hits for small molecule antagonists of the CRF-binding protein and CRF-R2 receptor complex.; format: functional; conditions: read-out: IC50_Mean
[3] = biological target: T2, Heat shock factor protein 1 (Mus musculus, UniProt P38532); test: decrease of HSF1-responsive luciferase luminescence – cell-based, NIH3T3, dose retest, confirmation (AID 2382); format: functional;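 also: NIH3T3 fibroblasts with HSF1-driven luciferase reporter stressed by proteasome inhibitor MG132; luminescence from HSF1-driven luciferase expression after 8 hours of MG132 stress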
T2 sequence (P38532 whole entry): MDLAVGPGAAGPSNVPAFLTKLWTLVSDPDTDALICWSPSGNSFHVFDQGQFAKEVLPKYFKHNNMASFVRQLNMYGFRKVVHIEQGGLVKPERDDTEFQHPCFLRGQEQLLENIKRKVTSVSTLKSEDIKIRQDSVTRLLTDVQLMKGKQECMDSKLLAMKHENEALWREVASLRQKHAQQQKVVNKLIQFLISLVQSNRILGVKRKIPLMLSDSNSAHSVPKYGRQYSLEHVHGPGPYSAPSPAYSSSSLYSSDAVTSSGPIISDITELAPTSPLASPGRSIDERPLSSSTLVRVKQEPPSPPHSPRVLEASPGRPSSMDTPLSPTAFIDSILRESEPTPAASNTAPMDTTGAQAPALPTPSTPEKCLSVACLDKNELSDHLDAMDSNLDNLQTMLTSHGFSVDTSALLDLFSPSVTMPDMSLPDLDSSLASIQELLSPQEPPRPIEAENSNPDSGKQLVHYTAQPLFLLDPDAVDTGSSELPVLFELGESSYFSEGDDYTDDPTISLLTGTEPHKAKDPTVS

[4] = non-specific 3'UTR reporter inhibition in Clone20-Shn3RL – cell-based, Renilla luciferase, cherry-picked, counter-screen for Shn3 inhibitor project, dose response (AID 624133); format: functional
[5] = reduction of Shn3 3'UTR-driven luciferase in osteoblasts – cell-based, Clone20 osteoblasts, firefly luciferase, cherry-picked, dose response (AID 624132); format: functional;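 also: firefly luciferase luminescence from reporter carrying the Shn3 3'UTR in osteoblasts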
[6] = loss of viability in HepG2 cells – cell-based, CellTiter-Glo, cherry-picked, cytotoxicity control for Shn3 inhibitor project, dose response (AID 624134); format: functional
[7] = Luminescence Cell-Based Dose Retest to Confirm Inhibitors of Cancer Stem Cells. [Related pubchem assays (depositor defined):AID2717, AID2721]; format: functional; conditions: Homo sapiens
INS1 = test: INS-1E survival protection against cytokine death – cell-based, luminescence, retest, dose response (AID 449756); format: functional; conditions: Rattus norvegicus, INS1;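 also: cell death triggered by IL-1 beta plus TNF-alpha plus IFN-gamma mixture; protective hits raise ATP signal compared with cytokine alone wells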
[8] = Trypanosoma cruzi growth suppression in host cells – NIH3T3 host cells, beta-gal luminescence, confirmation (AID 2044); format: functional, cell-based;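 also: intracellular parasites grown in NIH/3T3 mouse fibroblasts as host cells; luminescent beta-galactosidase reporter signal from transgenic T. cruzi replicating inside host cells; inhibitors lower the luminescence signal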
[9] = NIH3T3 cell viability loss – ATP luminescence, mouse fibroblasts, counter-screen, dose response (AID 2010); format: functional, cell-based;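 also: cells exposed to compound for about 90 hours before reading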
cells [10] = format: functional, cell-based
cells [11] = format: functional, cell-based; remark: listed apart in the source
Streptokinase A = biological target: T3, Streptokinase A (Streptococcus pyogenes serotype M1, UniProt P10520); test: viability-normalized secreted streptokinase activity reduction – plasminogen activation absorbance, OD405, dose response (AID 1914); format: functional, Streptococcus pyogenes M1 GAS;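 also: secreted streptokinase activity via plasminogen activation per viability signal from cell pellet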
T3 sequence (P10520 whole entry): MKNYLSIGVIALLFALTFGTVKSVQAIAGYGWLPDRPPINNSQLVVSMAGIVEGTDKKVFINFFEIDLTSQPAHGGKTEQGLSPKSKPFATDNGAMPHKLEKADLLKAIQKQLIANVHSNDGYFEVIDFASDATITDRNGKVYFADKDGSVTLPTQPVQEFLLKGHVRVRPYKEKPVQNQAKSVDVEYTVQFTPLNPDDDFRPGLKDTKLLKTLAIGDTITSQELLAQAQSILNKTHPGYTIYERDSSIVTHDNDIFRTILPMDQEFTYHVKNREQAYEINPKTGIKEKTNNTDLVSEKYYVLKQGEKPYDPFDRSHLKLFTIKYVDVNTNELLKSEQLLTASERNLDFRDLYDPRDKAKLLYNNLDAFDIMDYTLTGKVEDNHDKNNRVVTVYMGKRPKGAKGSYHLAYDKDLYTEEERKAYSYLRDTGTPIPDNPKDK

[12] = system: Streptococcus sp. 'group A'; test: Streptococcus pyogenes SK(-)GAS viability under kanamycin – luminescence, BacTiterGlo, confirmation, counter-screen for streptokinase expression inhibitor project, dose response (AID 1900); format: functional, organism-based
Streptococcus = test: GAS UMAA2166 growth inhibition – luminescence, BacTiterGlo, counter-screen for streptokinase expression inhibitor project, dose response (AID 1915); format: functional, organism-based;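 also: potency for reduction of bacterial viability or growth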
[13] = viability of uninfected HEp-2 cells – cell-based, HTS, cytotoxicity control for RSV inhibitor project, dose response (AID 2410); format: functional; conditions: human respiratory syncytial virus
Cytochrome P450 2C9 = Cytochrome P450 2C9 (Homo sapiens, UniProt P11712)
Cytochrome P450 2C9, sequence (P11712 whole entry): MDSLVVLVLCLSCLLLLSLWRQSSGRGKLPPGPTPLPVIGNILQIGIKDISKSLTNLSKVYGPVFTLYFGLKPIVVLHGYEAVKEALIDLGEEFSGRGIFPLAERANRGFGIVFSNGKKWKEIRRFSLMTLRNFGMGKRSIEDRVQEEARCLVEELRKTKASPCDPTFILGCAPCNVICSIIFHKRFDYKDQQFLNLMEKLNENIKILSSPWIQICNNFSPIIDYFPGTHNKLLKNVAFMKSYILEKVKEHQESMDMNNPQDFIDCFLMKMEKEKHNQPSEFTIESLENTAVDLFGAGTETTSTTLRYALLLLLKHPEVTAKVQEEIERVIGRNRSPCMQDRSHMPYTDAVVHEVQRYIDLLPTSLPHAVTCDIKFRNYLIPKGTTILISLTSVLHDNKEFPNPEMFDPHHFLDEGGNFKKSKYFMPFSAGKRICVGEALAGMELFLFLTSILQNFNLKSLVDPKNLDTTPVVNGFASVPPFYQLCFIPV

CCC(C)[C@H](NC(=O)N1CCn2c1nc1ccccc12)C(=O)NCc1ccc(OC)cc1 (some centres undefined)
EC50 [1]: > 53 µM (inactive)
IC50 [2]: > 47.1 µM (inactive)

OCc1nn2c(c1Br)NC(c1ccccc1)CC2C(F)(F)F (centres undefined)
EC50 [3]: > 195 µM (not active)

COc1ccc(OC)c(-c2cc(C(=O)N/N=C/c3cc(OC)c(OC)cc3OC)c3ccccc3n2)c1
EC50 [3]: > 195 µM (not active)

CCCCN(C(=O)c1ccc([N+](=O)[O-])s1)c1c(N)n(CCCC)c(=O)[nH]c1=O
EC50 [3]: > 195 µM (not active)

COC(=O)N/N=C(\C)c1cccs1
EC50 [1]: > 53 µM (inactive)
IC50 [2]: > 47.1 µM (inactive)

O=P(/C(=N/O)N1CCOCC1)(N1CCOCC1)N1CCOCC1
EC50 [1]: > 53 µM (inactive)
IC50 [2]: > 47.1 µM (inactive)

CO/C(O)=C1/C(C)=Nc2c(c(=O)n(C)c(=O)n2C)C1c1cccc(O)c1 (centres undefined)
EC50 [3]: 27.8 µM (active)

CCN(CC)S(=O)(=O)c1ccc(C)c(NC(=S)N2CCN(C/C=C/c3ccccc3)CC2)c1
AC50 [4]: 2.53 µM (active)
AC50 [5]: 2.55 µM (active)
AC50 [6]: 67.5 µM (active)

COc1cc(Nc2nc(-c3ccccc3)c3cc(C)ccc3n2)cc(OC)c1OC
AC50 [7]: 5.05 µM (active)
AC50 [5]: 6.55 µM (active)
AC50 [6]: 60.2 µM (active)

O=C(Nc1ccc(N2CCN(c3ccccc3)CC2)c(F)c1)C1CC1
EC50 [1]: > 53 µM (inactive)
IC50 [2]: > 47.1 µM (inactive)

O=C(O)COc1ccccc1/C=N/NC(=O)c1ccc2c(c1)OCCO2
EC50 [3]: > 195 µM (not active)

O=[N+]([O-])c1cc(/C=N\O)ccc1Oc1ccc(F)cc1
EC50 [1]: > 53 µM (inactive)
IC50 [2]: 24.9 µM (active)

Cc1cc(C)cc(C(=O)Nc2cccnc2Cl)c1
EC50 [1]: > 53 µM (inactive)
IC50 [2]: > 47.1 µM (inactive)

COc1cc(C(=O)NC2CCCc3c2cnn3-c2ccccc2F)cc(OC)c1OC (centres undefined)
AC50 [4]: 4.13 µM (active)
AC50 [5]: 0.781 µM (active)
AC50 [6]: 6.29 µM (active)

CCO[C@@H]1OC(C(=O)NCc2ccccc2)=C[C@H](c2ccc3c(c2)OCO3)[C@H]1CCCO
EC50 [3]: > 195 µM (not active)

CC(=O)c1cccc(NS(=O)(=O)c2ccc(N/C=C/C(=O)c3ccc(F)cc3)cc2)c1
AC50 (INS1): 4.36 µM (active)

Cc1cccc(N=C(S)NCC(C)CSc2ccc(Cl)cc2)c1 (centres undefined)
AC50 [7]: 5.75 µM (active)

COc1ccc(C)cc1NC(=O)N1CCCc2ccccc21
EC50 [1]: > 53 µM (inactive)
IC50 [2]: > 47.1 µM (inactive)

Cc1ccc2nc(-c3ccccn3)c(Nc3ccccc3C)n2c1
EC50 [8]: 1.74 µM (active)
AC50 [7]: 5.42 µM (active)
EC50 [9]: 5.84 µM (active)
EC50 (cells [10]): > 350 µM (not active)
EC50 (cells [11]): 18.6 µM (active)
AC50 (INS1): 6.06 µM (active)

O=C(Nc1ccc(F)cc1)c1cccnc1
AC50 (INS1): 14.5 µM (active)

CC(C)(c1ccccc1)c1ccc(OCCN2CCCC2)cc1
AC50 [7]: 0.824 µM (active)

CC(C)(C)c1ccc(Oc2ccc(N)cc2)cc1
AC50 [7]: 1.85 µM (active)

O=C(NCc1cccnc1)Nc1ccc([N+](=O)[O-])cc1
AC50 (INS1): 11.8 µM (active)

COc1ccc(OCC(=O)NNC(=S)NC(=O)c2ccc(Br)o2)cc1
AC50 [4]: 12.4 µM (active)
AC50 [5]: 5.27 µM (active)
AC50 [6]: > 70 µM (inactive)

Cc1nn(-c2ccccc2)c(C)c1/C=N/NC(=O)c1cc(-c2ccc(Br)s2)[nH]n1
AC50 [7]: 0.434 µM (active)
EC50 (Streptokinase A): > 150 µM (not active)
EC50 [12]: 7.15 µM (active)
EC50 (Streptococcus): 11.8 µM (active)

C/C(=N\NC1=NCCN1)c1ccc(N)c([N+](=O)[O-])c1
EC50 [3]: > 195 µM (not active)

O=C1C=C(c2ccnc3cc(Cl)ccc23)C[C@@H](c2ccc3c(c2)OCO3)C1
AC50 [4]: 0.312 µM (active)
AC50 [5]: 1.36 µM (active)
AC50 [6]: 27.6 µM (active)

O=S(=O)(Nc1ccc(-n2cccc2)cc1)c1ccc(Cl)c(Cl)c1
AC50 [7]: 4.84 µM (active)
EC50 (Streptokinase A): 11.3 µM (inconclusive)
EC50 [12]: 7.42 µM (active)
EC50 (Streptococcus): 7.58 µM (active)

COc1ccc(C(=O)Nc2ccc(Nc3ccccc3)cc2)cc1[N+](=O)[O-]
AC50 [7]: 2.69 µM (active)
CC50 [13]: 12.2 µM (active)

Cc1c(C(=O)C(=O)NCc2cccs2)c2ccccc2n1C
EC50 [3]: > 195 µM (not active)

O=C(COC(=O)Cc1ccsc1)NCC12CC3CC(CC(C3)C1)C2
EC50 [3]: > 195 µM (not active)

CC(=O)c1c(N2CCN(CCO)CC2)nc(=S)n(-c2ccccc2)c1C
EC50 [3]: > 195 µM (not active)

CCOc1ccc(C2N(c3ccc(F)cc3)C(=O)C3CCCN32)cc1OC (centres undefined)
EC50 [3]: > 195 µM (not active)

CCN(CC)C(=O)c1cc2cc([N+](=O)[O-])ccc2s1
EC50 [3]: > 195 µM (not active)
AC50 (Cytochrome P450 2C9): 17.8 µM (inconclusive)

Cc1cc(C)c(NC(=O)c2ccc(CNS(=O)(=O)c3cc(C(F)(F)F)ccc3Cl)cc2)c(C)c1
EC50 [1]: > 53 µM (inactive)
IC50 [2]: > 47.1 µM (inactive)

CC(=O)Nc1ccc(CN2CCC(CO)(CCOc3ccccc3)CC2)cc1
EC50 [3]: > 195 µM (not active)

COCc1ccc(CN2CCC(C(=O)Nc3cccc(-c4cscn4)c3)CC2)o1
EC50 [1]: > 53 µM (inactive)
IC50 [2]: > 47.1 µM (inactive)
